According to a melting point compilation (Tetko et al.; mined from patent text by program, amines drawn as free bases though some values may be those of a salt):
Residues, ends and D or L forms follow the SMILES beside them. *: point of attachment. Boc = CC(C)(C)OC(=O)*

| SMILES | melting point [°C] |
| --- | --- |
| CCc1nc2cc(C)c(Cl)nc2n1-c1ccc(CCNC(=O)NS(=O)(=O)c2ccc(C)cc2)cc1 | 205 to 206 |
| CCOc1ccc2[nH]ccc2c1 | 144 to 146 |
| Cc1cc(C(=O)c2ccc(Br)cc2)c(O)cc1Cl | 238 to 239 |
| O=C(C#CCCc1cccc(CF)n1)Nc1ccc(F)cc1 | 110 |
| C=C1C(=C)C2OC1c1cc3c(OC)ccc(OC)c3cc12 | 205 to 206 |
| COc1cc2c(cc1Br)[C@@H](O)[C@H](Br)C(C)(C)O2 (relative stereo) | 58 to 59 |
| CC(C)(C)N(NCc1ccccc1)C(=O)c1ccccc1 | 110 |
| Cc1cc(-c2ccc(C(F)(F)F)cc2)nc(-c2ccnc(-c3cccc(S(N)(=O)=O)c3)c2)c1 | 238 |
| CC(C)(C)CC(C)(CO)C(=O)O (centres undefined) | 96.5 to 100 |
| Cc1cc(C(=O)CBr)cn1S(=O)(=O)c1ccccc1 | 86 to 88 |
| CN(C)N=C(O)c1cc(C(=N)O)c(C(=O)O)cc1C(=O)O | 293 to 295 |
| CC(=O)C(CSC(=S)N(C)C)=C(C)O | 70 to 72 |
| Cc1cccc(NC(=O)NCC(=O)N(c2ccccc2)C(C(=O)OC(C)(C)C)c2cccc(Br)c2)c1 (racemic) | 103 |
| CCOc1cc(C=C(Br)Br)ccc1OC | 41 to 42 |
| O=C1c2ccccc2CNc2nc3ccc(Br)cc3c(Cl)c21 | 260 to 264 |
| O=C1c2ccccc2-n2cnc(CO)c2[C@@H]2CCCN12 | 212 to 214 |
| COc1ccc(CC(=O)Cc2c(OC)cc(OC)c(CC=C(C)C)c2OCC(=O)O)cc1 | 102 |
| COc1ccc(C(=C(C)P(c2ccccc2)c2ccccc2)c2ccc(OC)cc2)cc1 | 123 to 125 |
| COC(=O)c1cc(Cl)c(N=C2NCCN2)c(Cl)c1 | 229 to 231 |
| c1ccc(-c2ccon2)cc1 | 75 |
| COc1ccc2c(c1)c(Cc1cc(=O)n(C3CCCCC3)[nH]1)c(C)n2C(=O)c1ccc(Cl)c(Cl)c1 | 104 to 107 |
| CCNC(=O)Nc1ccc(Oc2ccc3nc(COc4ccc(CC5SC(=O)NC5=O)cc4)n(C)c3c2)cc1 (centres undefined) | 227 to 230 |
| O=C(NCc1ccsc1)N(O)CCO | 114 to 115 |

| SMILES | melting point [°C] |
| --- | --- |
| COc1cc(C)c(C(O)c2c(Cl)cncc2C(F)(F)F)c(OC)c1OC (centres undefined) | 102 to 105 |
| Oc1ccc(Cc2noc3cc(O)ccc23)cc1 | 178 |
| COc1ccc(-c2nc(-c3ccc(F)cc3)c(-c3ccncc3)[nH]2)cc1 | 264 to 265 |
| O=C(OC1CCCCC1)c1ncn2c1[C@@H]1CCN1C(=O)c1c(I)cccc1-2 | 124 to 125 |
| CC(C)(C)c1ccccc1COc1ccc(N)cn1 | 147 to 149 |
| CCC1c2cccn2-c2ccc(F)cc2N1C(=O)c1ccc(OC)cc1OC (centres undefined) | 131 to 132 |
| COc1ccc(CNc2cc3c(Nc4ccc(F)c(C(F)(F)F)c4)ncnc3cn2)cc1 | 202 to 204 |
| CC(C)CC(NC(=O)O)C(=O)NC(C)(C)C#N (centres undefined) | 166 to 168 |
| CCOC(=O)NNC(=S)NC | 117 |
| C1CNCCN2CCNCCNCCN(CCN1)CCOCCOCC2 | 75 |
| CCOc1nc2nc(SC)nn2c2c1cnc1c2cnn1CC | 209 to 211 |
| CSc1snc(C(F)(F)F)c1C(=O)O | 260 to 262 |
| CC(C)CC(N)C(=O)NC(CCCCNC(=O)OC(C)(C)C)C(=O)O (centres undefined) (H-Leu-Lys(Boc)-OH; configuration not given here) | 142 to 143 |
| COc1ccc(-c2nc(Sc3ccccc3F)[nH]c2-c2ccc(OC)cc2)cc1 | 195 |
| CC(=O)Oc1c(C)c(C)c2c(c1C)CC(C)(CO)O2 (centres undefined) | 98 to 99 |
| Cc1ccc(C(c2cc(C(C)(C)C)cc(C(C)(C)C)c2O)N(C)C)cc1C (centres undefined) | 82 to 85 |
| COc1c(Cl)ccc(-c2nc(C(=O)OC(C)C)c(I)c(N)c2F)c1F | 134 to 135 |
| Cc1oc(-c2ccccc2)nc1COc1nn(Cc2ccc(Oc3ccccc3)cc2)cc1C(=O)O | 222 to 223 |
| COc1ccc(C(=O)O)c(Oc2ccc(C(F)(F)F)cc2NC(=O)Nc2cc(C(F)(F)F)cc(C(F)(F)F)c2)c1 | 248 |
| Nc1nc(Cl)c(Cl)nc1C=Nc1ccc(Cl)cc1 | 179 to 182 |
| COc1ccc(-c2noc(C(F)F)c2-c2ccc(S(N)(=O)=O)cc2)cc1F | 188 to 190 |
| COC(=O)C=Cc1cc(Cl)ccc1C(=O)OC | 87 to 89 |
| CN(C)C1(c2cccc(F)c2)CCC(=O)CC1 | 83 to 88 |

| SMILES | melting point [°C] |
| --- | --- |
| CSc1ncc2n1-c1ccc(Cl)cc1C(c1ccccc1F)=NC2 | 180 to 181 |
| COc1ccc(-c2nc(S(=O)c3ccccc3)n(C)c2-c2ccc(OC)cc2)cc1 (centres undefined) | 114 to 115 |
| Cn1nc(-c2ccncc2)c(-c2ccc(Cl)cc2)c1N | 257 to 258 |
| CC(C)(C)OC(=O)N1CCN(C(=O)N2CCOCC2)CC1 | 171 to 173 |
| CC(C)Cn1nc(OCCCc2ccc(OC(C)C)cc2OCc2ccc(Cl)cc2Cl)cc1CCC(=O)O | 133 to 134 |
| O=C1CSc2cc(C(O)(C(F)(F)F)C(F)(F)F)ccc2N1 | 230 to 232 |
| COc1ccc2c3c1OC1C(O)C(C)(C)C(C)C4C(C2)N(C)CCC314 (centres undefined) | 110 to 112 |
| Nc1c(OCCCNCc2ccccc2)cccc1[N+](=O)[O-] | 66 to 67 |
| Cc1ccc(C(=S)NN)cc1 | 140 to 142 |
| CCCCCCCCCCCCCCCCCC(=O)N[C@H]1CCCNC(=O)C1 | 87 to 88 |
| O=C(/C=C/c1ccccc1Cl)Nc1ccc(-n2nc(C(F)(F)F)cc2C(F)(F)F)cc1 | 173 to 175 |
| O=C(NO)c1ccccn1 | 58 to 68 |
| CCCCCCCCCCCC(=O)Oc1ccc2cc(C(=N)N)ccc2c1 | 149 to 151 |
| O=C(O)c1cc2ccccc2n1S(=O)(=O)c1cccc(Cl)c1 | 216 to 217 |
| CCOC(=O)[C@H](CSC(=O)c1ccccc1)NC(=O)c1ccccc1 | 81 |
| CC(=O)Oc1cccc(C(C)=NOCCOc2ccc(CC3SC(=O)NC3=O)cc2)c1 (centres undefined) | 30 to 50 |
| COc1cc(N)ccc1S(=O)(=O)Nc1ccccc1C | 189 to 191 |
| CCOC(=O)/C(C)=C/CC[C@@H](C)[C@H]1CC[C@@]2(C)C3=CCC4C(C)(C)C(=O)CC[C@]4(C)C3=CC[C@]12C (some centres undefined) | 53 to 55 |
| CC(N)Oc1cccc2c1ccn2S(=O)(=O)c1ccccc1F (centres undefined) | 147 to 150 |
| COC(=O)C1(O)CC(OC(C)=O)C(NC(=O)Cc2cc(=O)oc3cc(OC(C)=O)ccc23)C(C(OC(C)=O)C(COC(C)=O)OC(C)=O)O1 (centres undefined) | 105 |
| Cc1cc2c(cc1C)C(c1ccccc1)(C(F)(F)F)c1cc(C)c(C)cc1O2 | 214 to 215 |
| COc1ccc(C(=O)NNC(=O)N(C)C)cc1 | 218 to 220 |

Results, then the compound that gave them:

| melting point [°C] | SMILES |
| --- | --- |
| 209 to 211 | CC1COCc2nc3c(N)nc4c(c3n21)CCCC4 (centres undefined) |
| 66 to 68 | CN(Cc1cn(C23CC4CC(CC(C4)C2)C3)nn1)Cc1cccs1 |
| 116 to 119 | CC1CC2C(C(O)CC3(C)C2CCC3(O)C(=O)COCc2ccccc2[N+](=O)[O-])C2(C)C=CC(=O)C=C12 (centres undefined) |
| 228 to 231 | CC(=O)Nc1c(C(=O)c2cccs2)[nH]c2cc(Cl)ccc12 |
| 166 to 167 | CCOCc1nc2c(N)nc3cc(N4CCOC4=O)ccc3c2n1CCCOC(C)C |
| 69 to 71 | CN(C)CCCCCCSc1ncccc1C(=O)c1cccs1 |
| 164 to 166 | CCOC(=O)c1cn(C2CC2)c2nc(N3CCC(NC)C3)c(F)cc2c1=O (centres undefined) |
| 65 to 69 | CCOC(=O)c1cccnc1Oc1cncc(Cl)c1 |
| 86 to 97 | COc1cc2c(cc1Nc1ncc(Cl)c(Nc3ccccc3S(=O)(=O)N3CCC(O)C3)n1)CCNC(=O)C2 (centres undefined) |
| 188 | O=C1NC(=O)C(=Cc2ccc(OCC3CN(c4ccccn4)CCO3)cc2)S1 (centres undefined) |
| 272 | CC(C)N1CCN(c2ccc(-c3[nH]nc4c3C(=O)c3c(NC(=O)NN5CCN(C)CC5)cccc3-4)cc2)CC1 |
| 349 to 350 | O=C(Nc1nccs1)c1cnc2ccccc2c1O |
| 106 to 108 | O=C(Cc1ccn(-c2ccc(F)cc2)c1)N1C(=O)OC[C@@H]1Cc1ccccc1 |
| 126 to 127 | CC(C)(C)c1ccc(CCCCC(=O)CC2CCCCC2)cc1NC(=O)CC1c2ccccc2Oc2ccccc21 |
| 169 to 170 | c1ccc(-c2cn(-c3ncc(C4CCCCC4)c4ccccc34)cn2)cc1 |
| 149 to 150 | BrCc1ccc2ccccc2c1CBr |

| melting point [°C] | SMILES |
| --- | --- |
| 98 | CCC1=NNC(C)=C(C(=O)NN)C1c1cccc([N+](=O)[O-])c1 (centres undefined) |
| 210 to 212 | CCOc1cccc(C(CO)n2nc(C(=O)O)c3c2-c2ccc(OCc4cncnc4)cc2CC3)c1 (centres undefined) |
| 159 | CC(CC1COC(c2ccc(C(=O)Nc3ccc(C#N)cc3)cc2)OC1)C(O)(Cn1cncn1)c1ccc(F)cc1F (centres undefined) |
| 265 to 267 | O=C1NCCc2c1c1cccc3c1n2CC3 |
| 108 to 111 | C=CCN1CCN(c2nc3cccccc-3n2)CC1 |
| 121 to 122 | CC(C)Oc1nccc(-c2c(-c3ccc(F)cc3)ncn2C2CCNCC2)n1 |
| 275 to 280 | Cc1csc2c1c(-c1ccccc1)nc(=O)n2C |
| 190 to 192 | COCCN(C)Cc1c(-c2ccc([N+](=O)[O-])cc2)sc2c1c(=O)n(-c1ccc3c(c1)OCO3)c(=O)n2Cc1c(F)cccc1F |
| 60 | CC(C)(Br)C1CC(=O)OC1OCc1cccc(Oc2ccccc2)c1 (centres undefined) |
| 128 to 129 | COc1ccccc1-n1nnc2cc(F)c(N)cc21 |
| 116 to 117 | CC(C)C[C@H](NC(=O)OCC1c2ccccc2-c2ccccc21)C(=O)N[C@H]1CCOC1OCc1ccccc1 (some centres undefined) |
| 135 to 137 | CN(C)CCN(C1CCN(C)CC1)S(=O)(=O)c1ccc(Nc2nccc(Nc3ccc(F)cc3)n2)cc1 |
| 60 | CCCNC(=O)c1nc2n(c1C)CCc1ccccc1C2OC1CCN(C)CC1 (centres undefined) |
| 96.5 | O=[N+]([O-])c1ccc2c(c1)CCC(CO)O2 (centres undefined) |
| 62 to 65 | Cn1nc(-c2ccc(F)cc2)c(-c2ccncc2)c1C(O)CCc1ccccc1 (centres undefined) |
